Data set [1] in a line: Test Example 4: nephrotoxicity, kidney marker gene expression by quantitative RT-PCR after intravenous administration. Type of data set: in vivo. The conditions noted are these: mouse, kidney, mice, nephrotoxicity positive when ΔΔCt of two-third of target genes (Kim1, Timp1, Lcn2) >3. On the procedure:
(§1) The expression level of marker genes for nephrotoxicity was determined by quantitative RT-PCR to evaluate nephrotoxicity of the compound of the present invention. The compound of the present invention or vehicle was intravenously administered to mice and their kidneys were isolated. After removal of the kidney capsule, all of the kidneys were sliced into two equal halves, and stored at −80° C. in RNAlater® (Ambion) until use. Samples were disrupted and homogenized in QIAzol Lysis Reagent with TissueLyser (Qiagen), and total RNA was extracted using an RNeasy® Mini kit (Qiagen). Total RNA concentrations were determined to read OD260 by absorptiometer.
(§2) The level of expression of the following target genes was determined using one-step quantitative real-time PCR: Kim1, Timp1, and Lcn2. Total RNA (80 ng/2 μL) was used as the template, and TaqMan Gene Expression Assays (Applied Biosystems, for Haver1 (Kim1), assay ID: Mm00506686_m1; Timp1, Mm01341361_m1; Lcn2, Mm01324470_m1) or TaqMan Endogenous Controls (Gapdh, predesigned assay reagent supplied by ABI, Applied Biosystems) were employed as gene-specific probe and primer sets. Quantitative RT-PCR was performed using a QuantiTect™ Probe RT-PCR kit (Qiagen), and transcript levels were quantitated with an Applied Biosystems 7900HT Fast Real Time PCR System (Applied Biosystems). Reverse transcription and amplification conditions were set as follows: 50° C. for 30 min, 95° C. for 15 min, followed by 40 cycles at 95° C. for 15 s and 60° C. for 1 min. The resulting cycle threshold (Ct) value was processed based on the comparative Ct method (ΔΔCt Method), where Gapdh was used as an endogenous reference gene to normalize the expression level of target genes.
(§3) The ΔCt was calculated as follows: Ct, Gapdh−Ct, target gene.
(§4) The ΔΔCt was calculated as follows: ΔCt, treated sample−ΔCt, average of vehicle control sample.
(§5) Higher ΔΔCt values indicate higher expression rates of the target gene and therefore high risk for nephrotoxicity.

The next data set concerns HepG2 cells. The class given is cell-based. The note with it: human, 71 h. As to the method:
The Cytotoxicith of the compounds of the present invention was evaluated by measuting cell numbers automatically using the cell image analyzer, Toxinsight® (Thermofisher Scientific).
HepG2 cells were seeded in 384-well black plates (100000 cells/mL) and allowed to attach for approximately 24 hours at 37° C. in humidified CO2 incubator. Test compounds and positive control (Fungizone®) were initially dissolved as concentrated 20 mmol/L stock solutions in DMSO and added to culture medium, to the final concentration; 1.6, 3.1, 6.3, 12.5, 25, 50, 100 μmol/L. The negative control well was treated with DMSO alone. After exposure of each test compound for approximately 71 hours, each well were added with Hoechst 33342, for staining of nuclei, diluted in D-PBS to the final concentration; 1 μg/mL, and after that, fixed with 4% paraformaldehyde. The cell number, stained with Hoechst 33342, was counted by Toxinsight® (Thermofisher Scientific) in each well. The mean value of cell number and the standard deviation (SD) was calculated (N=4).

Data set [2] has as its system red blood cells (5% RBC suspension). The data set is described as follows: Test Example 2-2: in vitro hemolytic activity test (upper limit 200 μmol/L). The class given is cell-based. The conditions noted are these: Erythrocyte, read-out: hemolysis IC50. The procedure, abridged: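 Washed defibrinated blood cells suspended at 5% in phenol-red-free Earle's medium, exposed to DMSO-dissolved compounds (top final 200 μmol/L, doubling dilutions) for 1 h at 37° C, 5% CO2. Supernatant A540 read; % hemolysis relative to water-lysed blood and DMSO control, IC50 derived, upper limit 200 μmol/L.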

The subject of another data set is C. albicans ATCC90028. Put plainly: Antifungal activity test, MIC by broth microdilution (CLSI M27-A3). Type of data set: cell-based. The note with it: Candida albicans. The method, boiled down:
(§6)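 CLSI broth microdilution in RPMI 1640 with 2% glucose, 0.165 mol/L MOPS, pH 7.0; two-fold DMSO dilutions. MIC = lowest concentration giving 100% inhibition versus growth control.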
Background: Dilution methods test growth across graded concentrations, often in twofold steps.

The next data set concerns A. fumigatus ATCC204305. Put plainly: Antifungal activity test, MIC by broth microdilution (CLSI M38-A2). Type of data set: cell-based. The note with it: Aspergillus fumigatus. The procedure, abridged:
as §6

The test system of another data set is A. flavus ATCC204304. Described as above. The class given is cell-based. The note with it: Aspergillus flavus. The procedure, abridged: as §6
The test system of another data set is Kim1, Timp1, and Lcn2. The data set is described as follows: Test Example 4: nephrotoxicity, kidney marker gene expression by quantitative RT-PCR after intravenous administration. The note with it: mice, nephrotoxicity positive when ΔΔCt of two-third of target genes (Kim1, Timp1, Lcn2) >3. Type of data set: in vivo. On the procedure:
as §1, §2, §3, §4, §5

The test system of data set [3] is red blood cells (5% RBC suspension). The data set is described as follows: Test Example 2-1: in vitro hemolytic activity test (upper limit 50, 80, 100 or 200 μmol/L). The class given is cell-based. The conditions noted are these: hemolysis method 200 (upper concentration 200 μmol/L); 5% RBC suspension, 37° C., one hour; read-out: hemolysis IC50. The procedure, abridged:
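A 5% suspension of washed red cells in Earle's medium was exposed to doubling dilutions of compound from DMSO, with maxima of 50, 80, 100 or 200 μmol/L final, for 1 h at 37 °C, 5% CO2. Supernatant absorbance at 540 nm was normalised to water-lysed cells. IC50 is the concentration giving 50% hemolysis; ">" values exceed the top concentration.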

The mark [4] stands for this setting: comparative example, hemolysis method 200 (upper limit 200 μmol/L), 37° C., an hour.
The mark [5] stands for this setting: C. albicans ATCC90028, broth microdilution, 35° C., 24-48 hours, 100% inhibition, read-out: MIC.
Where [6] appears, read: A. fumigatus ATCC204305, broth microdilution, 35° C., 24-48 hours, 100% inhibition, read-out: MIC.
[7] abbreviates: A. flavus ATCC204304, broth microdilution, 35° C., 24-48 hours, 100% inhibition, read-out: MIC.

Each structure is given as a SMILES string. Values after ≈ are worked out from the molar mass of the structure shown. Where two headings read alike, the source gives them in different places.

From patent publication US10696707B2, “Polyene macrolide derivative” (Shionogi & Co., Ltd., priority 2014, dated 2020) come the findings set out here.

For orientation: IC50 means the point on the concentration scale where inhibition reaches its midpoint. Consider `C[C@@H]1[C@H](O)[C@@H](C)/C=C/C=C/C=C/C=C/C=C/C=C/C=C/[C@H](O[C@@H]2O[C@H](C)[C@@H](O)[C@H](N)[C@@H]2O)C[C@@H]2O[C@](O)(C[C@@H](O)C[C@@H](O)[C@H](O)CC[C@@H](O)C[C@@H](O)CC(=O)O[C@H]1C)C[C@H](O)[C@H]2C(=O)O` [AmB, Amphotericin B, reference compound], for which, in data set [1], the MTD stood at 1 mg/kg. The “cytotoxicity (lowest cytotoxicity concentration)” value (shortened to “cytotoxicity”) in the data set with HepG2 cells was less than 1.6 µmol/L. Besides, the IC50 in data set [2] (setting [4]) is 1.6 µM.
What is called MIC is the lowest concentration found to suppress growth. Consider `C[C@@H]1[C@H](O)[C@@H](C)/C=C/C=C/C=C/C=C/C=C/C=C/C=C/[C@H](O[C@@H]2O[C@H](C)[C@@H](O)[C@H](N)[C@@H]2O)C[C@@H]2O[C@](O)(C[C@@H](O)C[C@@H](O)[C@H](O)CC[C@@H](O)C[C@@H](O)CC(=O)O[C@H]1C)C[C@H](O)[C@H]2NC(=O)NCCN` [AmBAU, reference compound], for which the minimal inhibitory concentration (MIC) with C. albicans ATCC90028 (ATCC90028) was 0.5 µg/mL (≈ 0.51 µM); with A. fumigatus ATCC204305 (ATCC204305), 1 µg/mL (≈ 1.02 µM); against A. flavus ATCC204304 (ATCC204304) it was 1 µg/mL (≈ 1.02 µM). Besides, the MTD in data set [1] worked out at 12 mg/kg. In the data set on HepG2 cells, the “cytotoxicity” value was 51.0 µmol/L. Moreover, the IC50 in data set [2] came out at 58 µM.
Turning to `C[C@@H]1[C@H](O)[C@@H](C)/C=C/C=C/C=C/C=C/C=C/C=C/C=C/[C@H](O[C@@H]2O[C@H](C)[C@@H](O)[C@H](N)[C@@H]2O)C[C@@H]2O[C@](O)(C[C@@H](O)C[C@@H](O)[C@H](O)CC[C@@H](O)C[C@@H](O)CC(=O)O[C@H]1C)C[C@H](O)[C@H]2NC(=O)NCCC(=O)O` [AmBCU, reference compound], the MIC in the data set with C. albicans ATCC90028 (setting [5]) came to 0.5 µg/mL (≈ 0.495 µM); in the data set on A. fumigatus ATCC204305 (setting [6]), 1 µg/mL (≈ 0.99 µM); in the data set on A. flavus ATCC204304 (setting [7]), 1 µg/mL (≈ 0.99 µM). In data set [1], this molecule showed an MTD of 3 mg/kg. Besides, the “cytotoxicity” value with HepG2 cells is 25.2 µmol/L.
As for `CNC(=O)N[C@H]1[C@@H]2C[C@@H](O[C@@H]3O[C@H](C)[C@@H](O)[C@H](N)[C@@H]3O)/C=C/C=C/C=C/C=C/C=C/C=C/C=C/[C@H](C)[C@@H](O)[C@@H](C)[C@H](C)OC(=O)C[C@H](O)C[C@H](O)CC[C@@H](O)[C@H](O)C[C@H](O)C[C@](O)(C[C@@H]1O)O2` [AmBMU, reference compound], the figures for the MIC in the data set with C. albicans ATCC90028 (setting [5]), in the data set with A. fumigatus ATCC204305 (setting [6]) and with A. flavus ATCC204304 (setting [7]) were 0.5 µg/mL (≈ 0.525 µM), 1 µg/mL (≈ 1.05 µM) and 1 µg/mL (≈ 1.05 µM), respectively. The molecule also came in with an MTD in data set [1] of 12 mg/kg. Moreover, the “cytotoxicity” value with HepG2 cells was determined as 12.5 µmol/L. In addition, the IC50 in data set [2] (setting [4]) turned out to be 130 µM.
As to `C[C@@H]1[C@H](O)[C@@H](C)/C=C/C=C/C=C/C=C/C=C/C=C/C=C/[C@H](O[C@@H]2O[C@H](C)[C@@H](O)[C@H](N)[C@@H]2O)C[C@@H]2O[C@](O)(C[C@@H](O)C[C@@H](O)[C@H](O)CC[C@@H](O)C[C@@H](O)CC(=O)O[C@H]1C)C[C@H](O)[C@H]2NC(=O)NC1(C#N)CC1` [I-105], in the data set on Kim1, Timp1, and Lcn2, the “nephrotoxicity MTD” value is listed as greater than 24 mg/kg. In data set [3], the IC50 is greater than 200 µM.
Regarding `C[C@@H]1[C@H](O)[C@@H](C)/C=C/C=C/C=C/C=C/C=C/C=C/C=C/[C@H](O[C@@H]2O[C@H](C)[C@@H](O)[C@H](N)[C@@H]2O)C[C@@H]2O[C@](O)(C[C@@H](O)C[C@@H](O)[C@H](O)CC[C@@H](O)C[C@@H](O)CC(=O)O[C@H]1C)C[C@H](O)[C@H]2NC(=O)N/N=C/[C@H](O)CO` [I-235], the “nephrotoxicity MTD” value in the data set with Kim1, Timp1, and Lcn2 was greater than 24 mg/kg.
